Data taken from patent US8658668B2, “PI3 kinase/mTOR dual inhibitor” (Eli Lilly and Company, priority 2011, dated 2014).

What was measured:
PI3Kb = PI3Kb (Homo sapiens, UniProt P42338); test: PI3K beta Scintillation Proximity Assay; format: biochemical; settings: 40 μM ATP; n=2; read-out: absolute IC50
Method: Use the PI3K beta Scintillation Proximity Assay (PI3K beta SPA) to determine the IC50 value against PI3Kb for a compound. This assay assesses the activity PI3K beta in the presence of compound inhibitors by measuring incorporation of γ-P33-ATP into phosphatidylinositol (4,5)bisphosphate (PIP2). Perform the kinase reactions in 40 μL reaction volumes in 96-well half-area flat bottom white with clear bottom polystyrene plates. Add PI3K beta to start the reaction. Final reaction conditions are 43.75 mM 2,2-bis(hydroxymethyl)-2,2′,2″-nitrilotriethanol (Bis-Tris) pH 7.0, 87.5 mM sodium chloride (NaCl), 1.76 mM polyethylene glycol octylphenyl ether (Triton™ X-100), 40 μM adenosine triphosphate (ATP), 1.0 mM magnesium chloride (MgCl2) and 1 μCi per well γ-P33-adenosine triphosphate (γ-P33-ATP), 6.0 nM PI3K beta human recombinant enzyme, 0.2 mM palmitoyl-oleoyl phosphatidylserine (POPS), 0.04 mM phosphatidylinositol (4,5)bisphosphate (PIP2), 4% DMSO and serial dilutions of compound (diluted 1:3 from 20,000 to 1 nM). […] Centrifuge plates for 30 min at 1000 revolutions per minute (RPM) and count radioactivity with a Wallac Microbeta Trilux normalized for P33. Derive the IC50 value for the compound by using percent inhibition data calculated using the reaction data relative to on-plate controls (active enzyme versus 62.5 millimolar EDTA-inhibited enzyme controls). […]

[1] = tested on: CXF 1729 human tumor xenograft cells; test: Oncotest tumor clonogenic assay, CXF 1729; format: cell-based; settings: colony formation, Colon CXF 1729, adeno carcinoma, wd, read-out: Absolute IC50
[2] = tested on: CXF 1783 human tumor xenograft cells; test: Oncotest tumor clonogenic assay, CXF 1783; format: cell-based; settings: colony formation, Colon CXF 1783, colon carcinoma, wd, read-out: Absolute IC50
pS473 AKT = test: In vivo target inhibition in U87MG tumors, pS473 AKT; settings: Mus musculus, U-87 MG; for inhibition at 0.5 mg/kg: 0.5 mg/kg oral; for inhibition at 1.5 mg/kg: 1.5 mg/kg oral; for inhibition at 3 mg/kg: 3 mg/kg oral; for inhibition at 6 mg/kg: 6 mg/kg oral; for inhibition at 10 mg/kg: 10 mg/kg oral; for inhibition at 12 mg/kg: 12 mg/kg oral
Method: Implant U87MG human glioblastoma cells (5×10^6) subcutaneously into the flank of athymic nude mice in 0.2 mL of matrigel. Ten days post-implantation, dose mice orally according to a time course, single dose/single time point, or dose response protocol for the determination of TMED50 (threshold minimum effective dose). Flash freeze tumors at harvest and collect blood for the determination of parent compound plasma exposure and the calculation of TMEC50 (threshold minimum effective concentration) in the case of dose response studies. Homogenize tumors in 500 μL of XY Lysis Buffer (10 μg/mL Leupeptin, 10 μg/mL Trypsin-Chymotrypsin Inhibitor, 10 μg/mL Tosyl phenyl-alanyl chloromethyl ketone, 10 μg/mL Aprotinin, 60 mM Beta-Glycerol Phosphate, 1% Triton X100, 25 mM Tris pH 7.5, 2.5 mM Pyrophosphate, 150 mM NaCl, 2 mM p-tosyl-L-arginine methyl ester, 15 mM para-nitrophenyl phosphate, 5 mM benzamidine, 1 mM sodium vanadate, 10 mM sodium fluoride, 50 μg/mL phenyl-methane sulfonyl fluoride, 1 mM 1,4-dithiothreitol (DTT), 15 mM EDTA pH 8.0, 5 mM EGTA pH 8.0, 1 μM Microcystin, 1 μM Okadaic Acid, and 1 Roche Complete protease inhibitor mini-tablet per 10 mL) using RNase Free Pellet Pestle (Kimble-Kontes). Aliquot lysates and either assay immediately or store at −80° C. for later testing. Use the multiplex format of Meso Scale Discovery (Gaithersburg, Md.) ELISA technology and measure in vivo target inhibition of PI3K and mTOR to assess effects on phosphorylation of the threonine 308 site of AKT, a downstream effector of PI3K; phosphorylation on the threonine 389 site of p70 S6K and on the serine 240/244 site of S6RP, downstream effectors of mTORC1; phosphorylation of the serine 473 site of AKT, a downstream effector of mTORC2. Add 20 μg of lysate to carbon electrode containing 96-well plates pre-spotted with the appropriate capture antibodies. Probe the protein of interest using a ruthenium labeled detection antibody. Pass current over the electrode in the presence of read buffer containing the co-reactant TPA, and quantitate and record the light generated by electro-chemiluminescence with the MSD Sector 6000 instrument. Calculate percent inhibitions relative to the vehicle control group and perform ANOVA analysis using the JMP software package for the determination of statistical significance.

[3] = tested on: human renal carcinoma cells 786-O; test: Xenograft tumor model, 786-O; format: in vivo, mouse; settings: oral gavage
Method: Expand human glioblastoma cells U87MG and human renal carcinoma cells 786-O, in culture, harvest and inject subcutaneously onto the rear flank of athymic nude mice. Expand human non-small cell lung cancer cells NCI-H1975 in culture, harvest and inject subcutaneously onto the rear flank of CD-1 nu/nu mice. Prepare test compound in an appropriate vehicle and administer by oral gavage when tumors are established (7-21 days after implant). Tumor response is determined by tumor volume measurement performed twice a week during the course of treatment. Body weight is taken as a general measurement of toxicity.

[4] = tested on: MEXF 276 human tumor xenograft cells; test: Oncotest tumor clonogenic assay, MEXF 276; format: cell-based; settings: colony formation, Melanoma MEXF 276, amelanotic melanoma, md, read-out: Absolute IC50
[5] = tested on: PRXF PC3M human tumor xenograft cells; test: Oncotest tumor clonogenic assay, PRXF PC3M; format: cell-based; settings: PC-3M, colony formation, Prostate PRXF PC3M, adeno carcinoma, metastatic, pd, read-out: Absolute IC50

Chain of PI3Kb (P42338 whole entry): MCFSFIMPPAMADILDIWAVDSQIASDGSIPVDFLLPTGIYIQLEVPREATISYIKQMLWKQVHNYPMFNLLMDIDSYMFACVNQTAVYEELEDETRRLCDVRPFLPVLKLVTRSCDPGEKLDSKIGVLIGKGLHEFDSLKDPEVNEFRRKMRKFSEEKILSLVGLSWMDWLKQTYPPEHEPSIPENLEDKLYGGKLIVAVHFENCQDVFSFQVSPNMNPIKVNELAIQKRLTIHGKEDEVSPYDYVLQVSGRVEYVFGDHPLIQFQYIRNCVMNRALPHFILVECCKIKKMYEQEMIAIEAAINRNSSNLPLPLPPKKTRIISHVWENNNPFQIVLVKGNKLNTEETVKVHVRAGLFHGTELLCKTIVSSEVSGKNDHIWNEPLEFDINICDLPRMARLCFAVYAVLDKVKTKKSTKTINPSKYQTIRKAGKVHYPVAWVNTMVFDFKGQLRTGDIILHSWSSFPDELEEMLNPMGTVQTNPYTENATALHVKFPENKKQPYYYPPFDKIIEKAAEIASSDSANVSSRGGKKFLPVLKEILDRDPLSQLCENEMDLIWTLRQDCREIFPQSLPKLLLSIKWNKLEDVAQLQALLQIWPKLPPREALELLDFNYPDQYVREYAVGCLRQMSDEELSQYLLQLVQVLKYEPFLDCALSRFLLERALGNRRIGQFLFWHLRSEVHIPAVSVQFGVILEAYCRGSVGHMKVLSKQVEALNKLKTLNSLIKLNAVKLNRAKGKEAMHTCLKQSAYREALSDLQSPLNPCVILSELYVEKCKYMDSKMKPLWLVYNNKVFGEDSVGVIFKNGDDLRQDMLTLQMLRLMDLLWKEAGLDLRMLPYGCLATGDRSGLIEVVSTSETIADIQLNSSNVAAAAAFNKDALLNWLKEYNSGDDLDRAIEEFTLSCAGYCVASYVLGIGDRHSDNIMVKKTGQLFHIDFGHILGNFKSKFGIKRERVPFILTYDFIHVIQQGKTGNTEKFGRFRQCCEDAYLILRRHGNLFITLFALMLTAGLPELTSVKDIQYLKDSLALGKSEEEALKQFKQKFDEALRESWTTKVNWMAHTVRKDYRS
Chain of PI3Kb (P27986 whole entry partner): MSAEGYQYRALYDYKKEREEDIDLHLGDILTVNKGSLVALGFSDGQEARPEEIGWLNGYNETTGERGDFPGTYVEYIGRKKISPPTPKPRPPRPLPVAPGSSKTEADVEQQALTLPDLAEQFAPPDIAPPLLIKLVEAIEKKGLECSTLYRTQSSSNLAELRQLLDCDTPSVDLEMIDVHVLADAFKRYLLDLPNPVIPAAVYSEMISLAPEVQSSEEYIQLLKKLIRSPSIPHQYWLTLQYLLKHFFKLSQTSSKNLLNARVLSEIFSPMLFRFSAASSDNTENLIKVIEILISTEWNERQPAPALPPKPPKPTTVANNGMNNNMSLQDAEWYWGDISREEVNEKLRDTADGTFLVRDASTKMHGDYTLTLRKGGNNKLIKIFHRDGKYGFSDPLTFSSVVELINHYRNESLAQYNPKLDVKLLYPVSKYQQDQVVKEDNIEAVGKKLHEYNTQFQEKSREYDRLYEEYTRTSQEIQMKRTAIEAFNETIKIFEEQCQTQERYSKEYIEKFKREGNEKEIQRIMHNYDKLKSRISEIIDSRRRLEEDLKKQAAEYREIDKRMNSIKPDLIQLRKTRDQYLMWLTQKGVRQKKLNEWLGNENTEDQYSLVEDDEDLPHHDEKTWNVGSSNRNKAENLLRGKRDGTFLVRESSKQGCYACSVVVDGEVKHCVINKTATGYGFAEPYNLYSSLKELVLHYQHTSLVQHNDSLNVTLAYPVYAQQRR

CO[C@@H](C)Cn1c(=O)n(C)c2cnc3ccc(-c4cncc(C(C)(C)O)c4)cc3c21 [Example 1, 8-[5-(1-Hydroxy-1-methylethyl)pyridin-3-yl]-1-[(2S)-2-methoxypropyl]-3-methyl-1,3-dihydro-2H-imidazo[4,5-c]quinolin-2-one]
IC50 (PI3Kb): 77.6 nM
IC50 [1]: 176 nM
IC50 [2]: 29 nM
inhibition at 0.5 mg/kg (pS473 AKT; 0.5 hr post dose): -9%
inhibition at 0.5 mg/kg (pS473 AKT; 4 hr post dose): -28%
inhibition at 1.5 mg/kg (pS473 AKT; 0.5 hr post dose): 34%
inhibition at 1.5 mg/kg (pS473 AKT; 4 hr post dose): -12%
inhibition at 3 mg/kg (pS473 AKT; 0.25 hr post dose): 23%
inhibition at 3 mg/kg (pS473 AKT; 0.5 hr post dose): 63%
inhibition at 3 mg/kg (pS473 AKT; 1 hr post dose): 12%
inhibition at 3 mg/kg (pS473 AKT; 3 hr post dose): -7%
inhibition at 3 mg/kg (pS473 AKT; 4 hr post dose): -3%
inhibition at 6 mg/kg (pS473 AKT; 0.25 hr post dose): 63%
inhibition at 6 mg/kg (pS473 AKT; 0.5 hr post dose): 77%
inhibition at 6 mg/kg (pS473 AKT; 1 hr post dose): 67%
inhibition at 6 mg/kg (pS473 AKT; 2 hr post dose): 51%
inhibition at 6 mg/kg (pS473 AKT; 4 hr post dose): -5%
inhibition at 6 mg/kg (pS473 AKT; 6 hr post dose): -8%
inhibition at 6 mg/kg (pS473 AKT; 12 hr post dose): -6%
inhibition at 10 mg/kg (pS473 AKT; 0.5 hr post dose): 90%
inhibition at 10 mg/kg (pS473 AKT; 1 hr post dose): 73%
inhibition at 10 mg/kg (pS473 AKT; 2 hr post dose): 66%
inhibition at 10 mg/kg (pS473 AKT; 4 hr post dose): 56%
inhibition at 10 mg/kg (pS473 AKT; 8 hr post dose): 13%
inhibition at 12 mg/kg (pS473 AKT; 0.5 hr post dose): 91%
inhibition at 12 mg/kg (pS473 AKT; 4 hr post dose): 44%
% TGI ([3]; 3 mg/kg BID): 33.9%
% TGI ([3]; 6 mg/kg BID): 56.9%
% TGI ([3]; 10 mg/kg BID): 70.2%
IC50 [4]: 157 nM
IC50 [5]: 208 nM
